Data published in patent publication US10266560B2, “Bile acid analogs as FXR/TGR5 agonists and methods of use thereof” (Enanta Pharmaceuticals, Inc., priority 2014, dated 2019).
Where two headings read alike, the source gives them in different places.

Biological target: Human FXR (NR1H4) (Homo sapiens (Human), UniProt Q96RI1)
Assay: Human FXR (NR1H4) Assay (Gal4 promoter driven luciferase reporter transactivation in CHO cells)
Assay type: cell-based
Source text: Assays Human FXR (NR1H4) Assay
Determination of a ligand mediated Gal4 promoter driven transactivation to quantify ligand binding mediated activation of FXR. FXR Reporter Assay kit purchased from Indigo Bioscience (Catalogue number: IB00601) to determine the potency and efficacy of compound developed by Enanta that can induce FXR activation. The principle application of this reporter assay system is to quantify functional activity of human FXR. The assay utilizes non-human mammalian cells, CHO (Chinese hamster ovary) cells engineered to express human NR1H4 protein (referred to as FXR). Reporter cells also incorporate the cDNA encoding beetle luciferase which catalyzes the substrates and yields photon emission. Luminescence intensity of the reaction is quantified using a plate-reading luminometer, Envision. Reporter Cells include the luciferase reporter gene functionally linked to an FXR responsive promoter. Thus, quantifying changes in luciferase expression in the treated reporter cells provides a sensitive surrogate measure of the changes in FXR activity. […] The assay is according to the manufacturer's instructions. In brief, the assay was performed in white, 96 well plates using final volume of 200 ul containing cells with different doses of compounds. Retrieve Reporter Cells from −80° C. storage. Perform a rapid thaw of the frozen cells by transferring a 10 ml volume of 37° C. cell recovery medium into the tube of frozen cells. Recap the tube of Reporter Cells and immediately place it in a 37° C. water bath for 5-10 minutes. Retrieve the tube of Reporter Cell Suspension from the water bath. Sanitize the outside surface of the tube with a 70% alcohol swab, and then transfer it into the cell culture hood. Dispense 100 μl of cell suspension into each well of the 96-well Assay Plate. Transfer the plate into 37° C. incubator, allowing the cells adherent to the bottom of the well. Dilute compounds in Dilution Plate (DP), and administrate to cells at Assay Plate (AP). DMSO content of the samples was kept at 0.2%. Cells were incubated for additional 22 hours before luciferase activities were measured. Thirty minutes before intending to quantify FXR activity, remove Detection Substrate and Detection Buffer from the refrigerator and place them in a low-light area so that they may equilibrate to room temperature. Remove the plate's lid and discard all media contents by ejecting it into an appropriate waste container. Gently tap the inverted plate onto a clean absorbent paper towel to remove residual droplets. Cells will remain tightly adhered to well bottoms. Add 100 μl of luciferase detection reagent to each well of the assay plate. Allow the assay plate to rest at room temperature for at least 5 minutes following the addition of LDR. Set the instrument (Envision) to perform a single 5 second “plate shake” prior to reading the first assay well. Read time may be 0.5 second (500 mSec) per well.

[1] = FXR agonistic potency range; CHO reporter cells expressing human NR1H4, 22 hours incubation; read-out: EC50
[2] = efficacy normalized to chenodeoxycholic acid (CDCA) set as 100%

Chain of Human FXR (NR1H4) (Q96RI1 whole entry, the tested form may be a part): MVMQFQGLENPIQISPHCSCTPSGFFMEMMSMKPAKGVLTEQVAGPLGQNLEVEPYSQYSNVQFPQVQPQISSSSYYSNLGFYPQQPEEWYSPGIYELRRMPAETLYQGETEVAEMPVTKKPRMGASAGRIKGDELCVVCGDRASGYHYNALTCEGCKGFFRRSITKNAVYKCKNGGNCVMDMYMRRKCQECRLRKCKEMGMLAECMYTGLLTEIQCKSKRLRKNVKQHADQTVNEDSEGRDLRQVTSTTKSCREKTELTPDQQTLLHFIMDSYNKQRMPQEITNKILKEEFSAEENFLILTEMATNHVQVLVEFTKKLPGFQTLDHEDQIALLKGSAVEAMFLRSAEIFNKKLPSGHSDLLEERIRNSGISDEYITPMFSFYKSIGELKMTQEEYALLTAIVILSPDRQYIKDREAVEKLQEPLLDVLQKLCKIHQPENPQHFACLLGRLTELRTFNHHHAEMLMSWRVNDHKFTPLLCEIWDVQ

SMILES: CC[C@@H]1C2C[C@H](O)CCC2(C)[C@H]2CCC3(C)C([C@H](C)CCC(=O)NS(=O)(=O)C4CCCCC4)CC[C@H]3[C@@H]2[C@@H]1O (stereo partly drawn) [Example 468]
- Emax (CHO, read-out: Efficacy (%)): 480%
- EC50 [1]: < 100 nM

SMILES: CCC1C(O)C2C3CCC(C(C)CCC(=O)NS(=O)(=O)c4ccccc4F)C3(C)CCC2C2(C)CCC(O)CC12 (stereo not drawn) [Example 22]
- EC50 [1]: 100 to 1000 nM
- Efficacy (%) [2]: 259%

SMILES: CC[C@@H]1C2C[C@H](O)CCC2(C)[C@H]2CCC3(C)C([C@H](C)CCC(=O)NS(=O)(=O)c4cnccn4)CC[C@H]3[C@@H]2[C@@H]1O (stereo partly drawn) [Example 469]
- Emax (CHO; read-out: Efficacy (%)): 447%
- EC50 (read-out: EC50): 1000 to 10000 nM

SMILES: CC[C@@H]1C2C[C@H](O)CCC2(C)[C@H]2CCC3(C)C([C@H](C)CCC(=O)NS(=O)(=O)c4cccc(C(F)(F)F)c4)CC[C@H]3[C@@H]2[C@@H]1O (stereo partly drawn) [Example 460]
- Emax (CHO, read-out: Efficacy (%)): 291%
- EC50 [1]: < 100 nM

SMILES: CC[C@H]1[C@@H](O)[C@@H]2[C@H](CC[C@]3(C)[C@@H]([C@H](C)C[C@H](C)C(=O)NS(=O)(=O)c4ccc(C(C)(C)C)cc4)CC[C@@H]23)[C@@]2(C)CC[C@@H](O)C[C@@H]12 [Example 488]
- Emax (CHO; read-out: Efficacy (%)): 132%
- EC50 (read-out: EC50): 100 to 1000 nM

SMILES: CC[C@@H]1C2C[C@H](O)CCC2(C)[C@H]2CCC3(C)C([C@H](C)CCC(=O)NS(=O)(=O)c4ccccn4)CC[C@H]3[C@@H]2[C@@H]1O (stereo partly drawn) [Example 462]
- Emax (CHO; read-out: Efficacy (%)): 297%
- EC50 (read-out: EC50): 100 to 1000 nM

SMILES: CC[C@@H]1C2C[C@H](O)CCC2(C)[C@H]2CCC3(C)C([C@H](C)CCC(=O)NS(=O)(=O)c4cccc(OC(F)(F)F)c4)CC[C@H]3[C@@H]2[C@@H]1O (stereo partly drawn) [Example 471]
- Emax (CHO, read-out: Efficacy (%)): 467%
- EC50 [1]: < 100 nM

SMILES: CC[C@@H]1C2C[C@H](O)CCC2(C)[C@H]2CCC3(C)C([C@H](C)CCC(=O)NS(=O)(=O)c4ccc(C#N)cc4)CC[C@H]3[C@@H]2[C@@H]1O (stereo partly drawn) [Example 461]
- Emax (CHO; read-out: Efficacy (%)): 283%
- EC50 (read-out: EC50): 100 to 1000 nM

SMILES: CC[C@@H]1C2C[C@H](O)CCC2(C)[C@H]2CCC3(C)C([C@H](C)CCC(=O)NS(=O)(=O)c4ccc(C(C)(C)C)cc4)CC[C@H]3[C@@H]2[C@@H]1O (stereo partly drawn) [Example 484]
- Emax (CHO, read-out: Efficacy (%)): 349%
- EC50 [1]: < 100 nM

SMILES: CCCCS(=O)(=O)NC(=O)CCC(C)C1CCC2C3C(O)C(CC)C4CC(O)CCC4(C)C3CCC12C (stereo not drawn) [Example 4]
- EC50 [1]: 100 to 1000 nM
- Efficacy (%) [2]: 376%

SMILES: CC[C@@H]1C2C[C@H](O)CCC2(C)[C@H]2CCC3(C)C([C@H](C)CCC(=O)NS(=O)(=O)c4ccc(C)c(F)c4)CC[C@H]3[C@@H]2[C@@H]1O (stereo partly drawn) [Example 465]
- Emax (CHO, read-out: Efficacy (%)): 303%
- EC50 [1]: < 100 nM

SMILES: CC[C@@H]1C2C[C@H](O)CCC2(C)[C@H]2CCC3(C)C([C@H](C)CCC(=O)NS(=O)(=O)c4ccccc4C(F)(F)F)CC[C@H]3[C@@H]2[C@@H]1O (stereo partly drawn) [Example 459]
- Emax (CHO; read-out: Efficacy (%)): 310%
- EC50 (read-out: EC50): 100 to 1000 nM

SMILES: CC[C@H]1[C@@H](O)[C@@H]2[C@H](CC[C@]3(C)[C@@H]([C@H](C)C[C@@H](C)C(=O)NS(=O)(=O)c4ccc(C(C)(C)C)cc4)CC[C@@H]23)[C@@]2(C)CC[C@@H](O)C[C@@H]12 [Example 485]
- Emax (CHO; read-out: Efficacy (%)): 185%
- EC50 (read-out: EC50): 100 to 1000 nM

SMILES: CCCS(=O)(=O)NC(=O)CCC(C)C1CCC2C3C(O)C(CC)C4CC(O)CCC4(C)C3CCC12C (stereo not drawn) [Example 6]
- EC50 [1]: 100 to 1000 nM
- Efficacy (%) [2]: 295%

SMILES: CC[C@H]1[C@@H](O)[C@@H]2[C@H](CC[C@]3(C)[C@@H]([C@H](C)CCCC(=O)NS(=O)(=O)c4ccc(C(C)(C)C)cc4)CC[C@@H]23)[C@@]2(C)CC[C@@H](O)C[C@@H]12 [Example 491]
- Emax (CHO, read-out: Efficacy (%)): 182%
- EC50 [1]: < 100 nM

SMILES: CCC1C(O)C2C3CCC(C(C)CCC(=O)NS(=O)(=O)C(F)(F)F)C3(C)CCC2C2(C)CCC(O)CC12 (stereo not drawn) [Example 10]
- EC50 [1]: 1000 to 10000 nM
- Efficacy (%) [2]: 244%

SMILES: CC[C@@H]1C2C[C@H](O)CCC2(C)[C@H]2CCC3(C)C([C@H](C)CCC(=O)NS(=O)(=O)c4ccccc4Cl)CC[C@H]3[C@@H]2[C@@H]1O (stereo partly drawn) [Example 451]
- Emax (CHO; read-out: Efficacy (%)): 274%
- EC50 (read-out: EC50): 100 to 1000 nM

SMILES: CC[C@@H]1C2C[C@H](O)CCC2(C)[C@H]2CCC3(C)C([C@H](C)CCC(=O)NS(=O)(=O)c4cccc5ncccc45)CC[C@H]3[C@@H]2[C@@H]1O (stereo partly drawn) [Example 470]
- Emax (CHO; read-out: Efficacy (%)): 439%
- EC50 (read-out: EC50): 100 to 1000 nM

SMILES: CC[C@H]1[C@@H](O)[C@@H]2[C@H](CC[C@]3(C)[C@@H]([C@H](C)C[C@@H](C)C(=O)NS(=O)(=O)C4CC4)CC[C@@H]23)[C@@]2(C)CC[C@@H](O)C[C@@H]12 [Example 486]
- Emax (CHO; read-out: Efficacy (%)): 387%
- EC50 (read-out: EC50): 100 to 1000 nM

SMILES: CC[C@@H]1C2C[C@H](O)CCC2(C)[C@H]2CCC3(C)C([C@H](C)CCC(=O)NS(=O)(=O)c4cccc(C)c4)CC[C@H]3[C@@H]2[C@@H]1O (stereo partly drawn) [Example 457]
- Emax (CHO, read-out: Efficacy (%)): 382%
- EC50 [1]: < 100 nM

SMILES: CCC1C(O)C2C3CCC(C(C)CCC(=O)NS(=O)(=O)c4ccccc4C)C3(C)CCC2C2(C)CCC(O)CC12 (stereo not drawn) [Example 20]
- EC50 [1]: 100 to 1000 nM
- Efficacy (%) [2]: 348%

SMILES: CC[C@@H]1C2C[C@H](O)CCC2(C)[C@H]2CCC3(C)C([C@H](C)CCC(=O)NS(=O)(=O)c4ccc(Cl)cc4)CC[C@H]3[C@@H]2[C@@H]1O (stereo partly drawn) [Example 480]
- Emax (CHO, read-out: Efficacy (%)): 346%
- EC50 [1]: < 100 nM

SMILES: CC[C@@H]1C2C[C@H](O)CCC2(C)[C@H]2CCC3(C)C([C@H](C)CCC(=O)NS(=O)(=O)c4cccc(F)c4)CC[C@H]3[C@@H]2[C@@H]1O (stereo partly drawn) [Example 456]
- Emax (CHO, read-out: Efficacy (%)): 415%
- EC50 [1]: < 100 nM

SMILES: CC[C@H]1[C@@H](O)[C@@H]2[C@H](CC[C@]3(C)[C@@H]([C@H](C)CCC(=O)NS(=O)(=O)c4ccccc4)CC[C@@H]23)[C@@]2(C)CC[C@@H](O)C[C@@H]12 [Example 18]
- EC50 [1]: < 100 nM
- Efficacy (%) [2]: 329%
